Where two headings read alike, the source gives them in different places.
Experiments:
HCT116 (p53-/-) cells = test: Cell viability, CellTiter-Glo; type: cell-based; details: Homo sapiens, HCT-116, 72 hrs post drug addition
HCT116 (p53+/+) cells = test: Cell viability, CellTiter-Glo; type: cell-based
Colo-205 cells [1] = test system: Colo-205 cells; design: method as in PMID 22560567; details: Colo-205 ref 49; read-out: Cellular Proliferation IC50; cited from earlier work
DDK = details: purified DDK ref 49; read-out: DDK IC50 (in vitro); cited from earlier work
HCC1954 cells [2] = test: Caspase 3/7 activity (apoptosis); type: cell-based; details: HCC1954, 24 hours
Protocol: Caspase 3/7 activity and viable cell number were then measured using the Caspase-Glo 3/7 assay (Promega) and CellTiter-Glo assay (Promega), respectively.

[3] = test system: Mcm2 phosphorylation in Colo-205 cells; test: Immunoblot of DDK-dependent Mcm2 phosphorylation; type: cell-based; details: Colo-205, 5 µM, 24 hours
panel of 100 kinases = test system: panel of 100 kinases; design: method as in PMID 22560567; details: panel of 100 kinases ref 49; cited from earlier work
Colo-205 cells [4] = test: Cell viability, CellTiter-Glo; type: cell-based; details: Homo sapiens, COLO 205, 72 h
purified DDK = biological target: T1, purified DDK (Homo sapiens, UniProt O00311); test: In vitro (γ)-32P ATP DDK kinase assay (DDK auto-phosphorylation); type: biochemical; details: increasing inhibitor concentrations
T1 construct: His6-Smt3 (SUMO) (N, cleaved yes); made in house; host or cells: E. coli BL21-RIPL (pKT37, pETDuet-1 vector)
T1 sequence (O00311 whole entry): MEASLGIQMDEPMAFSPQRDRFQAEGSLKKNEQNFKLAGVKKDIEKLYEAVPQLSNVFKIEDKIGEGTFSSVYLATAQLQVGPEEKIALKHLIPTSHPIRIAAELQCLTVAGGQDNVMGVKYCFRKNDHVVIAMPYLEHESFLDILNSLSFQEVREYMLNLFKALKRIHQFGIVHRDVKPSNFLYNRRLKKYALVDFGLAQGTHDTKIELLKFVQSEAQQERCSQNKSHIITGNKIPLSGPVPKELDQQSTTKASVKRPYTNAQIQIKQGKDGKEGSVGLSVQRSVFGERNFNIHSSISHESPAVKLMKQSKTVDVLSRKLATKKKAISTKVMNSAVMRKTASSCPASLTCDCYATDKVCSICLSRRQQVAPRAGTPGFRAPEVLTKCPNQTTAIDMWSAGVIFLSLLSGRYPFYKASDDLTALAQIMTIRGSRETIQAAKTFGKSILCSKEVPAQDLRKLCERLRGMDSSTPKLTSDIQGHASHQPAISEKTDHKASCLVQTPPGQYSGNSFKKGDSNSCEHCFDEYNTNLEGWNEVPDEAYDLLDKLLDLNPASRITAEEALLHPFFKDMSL
T1 sequence (Q9UBU7 341-674 partner limits assumed): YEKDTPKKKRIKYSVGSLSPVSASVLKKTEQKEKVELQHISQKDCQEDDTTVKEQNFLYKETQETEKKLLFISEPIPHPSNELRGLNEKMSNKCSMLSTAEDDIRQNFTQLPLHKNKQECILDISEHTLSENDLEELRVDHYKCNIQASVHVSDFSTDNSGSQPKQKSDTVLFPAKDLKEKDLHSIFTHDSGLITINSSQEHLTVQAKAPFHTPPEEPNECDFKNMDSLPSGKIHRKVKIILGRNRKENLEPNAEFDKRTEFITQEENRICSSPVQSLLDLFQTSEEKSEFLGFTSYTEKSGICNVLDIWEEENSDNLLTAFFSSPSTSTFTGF

Colo-205 cells [5] = details: Colo-205, 24 hours
Eight tumor cell lines = test: Cell viability at 5 µM inhibitor, cell line panel; type: cell-based; details: 72 hrs, relative to vehicle controls
HCC1954 cells [6] = test: Cell viability, CellTiter-Glo; type: cell-based; details: Homo sapiens, HCC1954, 72 h
[7] = test system: Mcm2 Serine 53 phosphorylation in HCC1954 cells; test: Immunoblot of DDK-dependent Mcm2 phosphorylation; type: cell-based; details: HCC1954, 5 µM
Protocol: Whole cell extracts were prepared by re-suspending the pellets in RIPA buffer (150 mM NaCl, 1% NP-40, 0.5% sodium deoxycholate, 0.1% SDS, 50 mM Tris HCl, pH 8) containing protease inhibitors (100 µM PMSF, 1 mM Benzamide, 2.5 µg/ml Pepstatin A, 10 µg/ml Leupeptin, and 10 µg/ml Aprotinin) and phosphatase inhibitors (1 mM each NaF, Na3VO4 and Na4P2O7). Protein concentration was measured using the BCA protein assay kit (Pierce) according to manufacturer's protocol. Equal amounts of protein were subjected to SDS-PAGE and transferred to a nitrocellulose membrane (Millipore). Transfer efficiency and equal loading was confirmed by Ponceau S staining. Following primary and secondary antibody treatments, proteins were visualized using SuperSignal West Pico solutions (Thermo Scientific). Anti-Mcm2 and anti-S53-phospho-Mcm2 antibodies were purchased from Bethyl Laboratories; anti-β-actin was from Sigma; anti-mouse and anti-rabbit HRP antibodies were from GE Healthcare; and anti-Cdc7 and anti-Dbf4 antibodies were described previously.
Effective cellular uptake of the DDK inhibitor should compromise DDK activity in vivo. Among the many targets of DDK are components of the replicative Mcm2–7 helicase. Serine 53 of Mcm2 subunit is a well-characterized target site for DDK mediated phosphorylation. We quantitated levels of phosphorylation on this site as a measure of DDK activity in vivo. […] Cells were then harvested at 0, 24, 48, and 72 hours post drug addition to measure viable cells and Mcm2 phosphorylation by immunoblotting.

IC50 (HCT116 (p53-/-) cells): 36600 nM
IC50 (HCT116 (p53+/+) cells; Homo sapiens, HCT-116, HCT116 (p53+/+), 72 hrs post drug addition): 28700 nM
IC50 higher than PHA-767491 (HCT116 (p53+/+) cells; two additional colorectal tumor cell lines (HCT116 p53+/+ and p53-/-)): 40- to 60 fold
IC50 (Colo-205 cells [4]; Colo-205, 72 hrs post drug addition): 1100 nM
IC50 (Colo-205 cells [4]; Colo-205, 72 hrs, XL413 from commercial supplier MedKoo): 600 nM
IC50 (purified DDK): 22.7 nM
IC50 (HCC1954 cells [6]; HCC1954, 72 hrs post drug addition): 22900 nM
IC50 (HCC1954 cells [6]; XL413 from commercial supplier MedKoo): 22400 nM
SMILES: O=c1[nH]c([C@@H]2CCCN2)nc2c1oc1ccc(Cl)cc12 [XL413, (S)-8-chloro-2-(pyrrolidin-2-yl)benzofuro[3,2-d]pyrimidin-4(3H)-one]
IC50 (Colo-205 cells [1]): 2690 nM
IC50 (DDK): 3.4 nM
Apoptosis induction (Caspase 3/7 activity) (HCC1954 cells [2]): induced apoptosis only in the Colo-205 cells
Mcm2 phosphorylation [3]: completely abolished Mcm2 phosphorylation
Selectivity for DDK (panel of 100 kinases): highly selective for DDK
Apoptosis induction (Caspase 3/7 activity) (Colo-205 cells [5]): induced apoptosis only in the Colo-205 cells
Anti-proliferative activity (Eight tumor cell lines): anti-proliferative only in the Colo-205 cells
Mcm2 phosphorylation ([7]; 24 hrs): did not inhibit Mcm2 phosphorylation
Mcm2 phosphorylation ([7]; 72 hours): only a modest decrease in Mcm2 phosphorylation

Reference: PMC4239038, “The Potent Cdc7-Dbf4 (DDK) Kinase Inhibitor XL413 Has Limited Activity in Many Cancer Cell Lines and Discovery of Potential New DDK Inhibitor Scaffolds” (PLoS ONE, 2014)
